# Measurements as given in US20090036531A1, “Method for treatment of onychomycosis” (priority 2005, published 2009).
# Where two headings read alike, the source gives them in different places.
# Key:
# [1] = tested on: onychomycosis; conditions: continuous therapy (ingestion); cited from earlier work
# [2] = cited from earlier work
# [3] = tested on: Onychomycosis fungi; experiment: Addition of undecylenic acid or hydroquinone to cyanoacrylate ester on infected nails; format: in vivo; conditions: for effect on yellow color of infected nails: added to cyanoacrylate ester
molecule,measurement,setting,value
"CN(C/C=C/C#CC(C)(C)C)Cc1cccc2ccccc12 [Lamisil, terbinafine]",Cure of all nails (share of subjects),[1],25%
same,complete cure,[1],41%
same,mycological cure,[1],71%
2-ETHYL CYANO ACRYLATE,Soluble In,[2]; Cured State,"Pacer X-8 Debonder, Acetone,"
same,Soluble In,[2]; Liquid State,"Acetone, MEK, Nitromethane"
Oc1ccc(O)cc1 [hydroquine],effect on yellow color of infected nails,[3],remove the yellow-color of infected nails
C=CCCCCCCCCC(=O)O [undecylenic acid],effect on yellow color of infected nails,[3],remove the yellow-color of infected nails
same,effect on spread of infection,"[3]; addition of 1-12%, preferably 2-10%",inhibit the spread of infection
